From publication PMC5050390, “Transport of Corilagin, Gallic Acid, and Ellagic Acid from Fructus Phyllanthi Tannin Fraction in Caco-2 Cell Monolayers” (Evidence-based Complementary and Alternative Medicine : eCAM, 2016)

What was measured:
[1] = Transport of PTF constituents across Caco-2 cell monolayers (LC-MS quantification); assay type: in vitro ADME, human; parameters: efflux ratio at 180 min / Papp A→B at 180 min: dose or concentration left out as unconfirmed; conditions: human, Caco-2, 180 min; for efflux ratio at 180 min: read-out: PDR (ratio of P app BL→AP to P app AP→BL)
Procedure: (§1) When cells were cultured to 80% confluence, they were seeded in 12-well Transwell-Clear plates at a density of 1.2 × 10^5 cells/insert. Cells were cultured for 21 days to reach confluence and functional differentiation. Complete medium was replaced every 2 days for the first 2 weeks and daily renewed for the last 7 days. All cells were between passages 35 and 55. […] After 21-day culture, the complete medium was removed and the monolayer was washed three times and balanced with HBSS (previously warmed to 37°C) for 30 min. […] […] All samples were dried with organomation. Before analyzing, the dry samples were dissolved in methanol/water/acetic acid (200 : 200 : 1, v/v/v) and the insoluble substance was eliminated with centrifugation 12000 rpm for 5 min. Protein inhibitors including verapamil (100 μM), indomethacin (10 μM), and phloridzin (50 μM) were employed to investigate the role of different transporters. Epithelial tight junction modulators such as SDS (50 μg/mL) and PLL (50 μg/mL) were used to evaluate the role of paracellular permeability. Hydrophilic marker sodium fluorescein (0.6 mg/mL) was used for the evaluation of the integrity of the cell monolayer. […] The column temperature was 20°C and the injection volume was 20 μL. MS/MS analysis was acquired using an Agilent 6410 triple quadrupole mass spectrometer (Agilent Technologies, CA, USA) equipped with an electrospray ionisation (ESI) in the negative mode. Other analytical conditions included the drying gas temperature of 300°C, the drying gas flow of 11 L/min, the nebulizer pressure of 35 psi, and the capillary voltage of 4 kV. To get the highest abundance, the fragmentor voltage and collision energy were optimized. Data acquisition and processing were accepted by Agilent Mass Hunter workstation software version B.05.00 using multiple reaction monitoring (MRM). The quantification was performed using external standard method. […] Here, dC/dt is the change in concentration on the receiver side over time; V is the volume of the solution in the receiver chamber; A is the surface area of the cell monolayer; C 0 is the initial concentration in the donor chamber. PDR is the ratio of P app(BL→AP) to P app(AP→BL).

Caco-2 cell monolayers = assay: as above; assay type: in vitro ADME, human; parameters: efflux ratio at 180 min / Papp A→B at 180 min: dose or concentration left out as unconfirmed; conditions: for change of transport with tight junction modulators SDS and PLL: SDS and PLL 50 μg/mL; for PDR (ratio of P app BL→AP to P app AP→BL): compound in PTF 1.00 mg/mL; for change of transport (P app) in presence of indomethacin: indomethacin 10 μM (MRPs/OATP inhibitor); for change of transport (P app) in presence of indomethacin / change of transport (P app) in presence of phloridzin / change of transport (P app) in presence of verapamil: PTF 1.00 mg/mL, 120 min; for change of transport (P app) in presence of phloridzin: phloridzin 50 μM (SGLT1 inhibitor); for change of transport (P app) in presence of verapamil: verapamil 100 μM (P-gp inhibitor)
Procedure: as §1

[2] = parameters: method as in earlier work; conditions: rats, oral PTF 6 g/kg; cited from earlier work
Caco-2 cell monolayer = tested on: Caco-2 cell monolayer; parameters: method as in PMID 14646189; conditions: pure compound; cited from earlier work
[3] = compound in PTF 1.00 mg/mL, mean ± SEM (n = 3)

| efflux ratio at 180 min [1] | Papp B→A at 180 min [1, 3] | change of transport with tight junction modulators SDS and PLL (Caco-2 cell monolayers) | PDR (ratio of P app BL→AP to P app AP→BL) (Caco-2 cell monolayers; 180 min) | change of transport (P app) in presence of indomethacin (Caco-2 cell monolayers) | change of transport (P app) in presence of phloridzin (Caco-2 cell monolayers) | change of transport (P app) in presence of verapamil (Caco-2 cell monolayers) | Papp A→B at 180 min, 1 mg/mL [1, 3] | secretion transport P app (BL→AP) (Caco-2 cell monolayers; human, Caco-2, 180 min) | absorption transport P app (AP→BL) (Caco-2 cell monolayers; compound in PTF) | SMILES | Papp A→B at 180 min ([1]; mean ± SEM (n = 3)) | secretion transport P app (BL→AP) (Caco-2 cell monolayers; compound in PTF) | peak concentration (C max) [2] | P app of GA across Caco-2 cell monolayer (Caco-2 cell monolayer) | P app of marker across the monolayers (Caco-2 cell monolayers; sodium fluorescein 0.6 mg/mL, monolayer integrity check) |
| --- | --- | --- | --- | --- | --- | --- | --- | --- | --- | --- | --- | --- | --- | --- | --- |
| 12.5 | 2.18 ± 0.228 ×10⁻⁶ cm/s | greatly improved | more than 1.5 | significantly increased | no considerable change | significantly increased | 0.174 ± 0.019 ×10⁻⁶ cm/s | ~10^−6 cm/s | – | O=C(O[C@@H]1O[C@@H]2COC(=O)c3cc(O)c(O)c(O)c3-c3c(cc(O)c(O)c3O)C(=O)O[C@H]([C@H]1O)[C@@H]2O)c1cc(O)c(O)c(O)c1 [Corilagin] | – | – | lower than 10.47 μg/mL | – | – |
| – | – | – | – | – | – | – | – | – | – | O=C([O-])c1ccccc1-c1c2ccc(=O)cc-2oc2cc([O-])ccc12.[Na+].[Na+] [sodium fluorescein, reference compound] | – | – | – | – | 3.16 ± 0.25 × 10^−7 cm/s |
| 1.31 | 0.456 ± 0.01 ×10⁻⁶ cm/s | greatly improved | less than 1.5 | strongly decreased | strongly decreased | no substantial difference | – | – | ~10^−7 cm/s | O=c1oc2c(O)c(O)cc3c(=O)oc4c(O)c(O)cc1c4c23 [Ellagic acid] | 0.347 ± 0.018 ×10⁻⁶ cm/s | ~10^−7 cm/s | lower than 10.47 μg/mL | – | – |

| SMILES | efflux ratio at 180 min [1] | Papp B→A at 180 min [1, 3] | change of transport with tight junction modulators SDS and PLL (Caco-2 cell monolayers) | PDR (ratio of P app BL→AP to P app AP→BL) (Caco-2 cell monolayers; 180 min) | change of transport (P app) in presence of indomethacin (Caco-2 cell monolayers) | change of transport (P app) in presence of phloridzin (Caco-2 cell monolayers) | change of transport (P app) in presence of verapamil (Caco-2 cell monolayers) | Papp A→B at 180 min, 1 mg/mL [1, 3] | secretion transport P app (BL→AP) (Caco-2 cell monolayers; human, Caco-2, 180 min) | absorption transport P app (AP→BL) (Caco-2 cell monolayers; compound in PTF) | Papp A→B at 180 min ([1]; mean ± SEM (n = 3)) | secretion transport P app (BL→AP) (Caco-2 cell monolayers; compound in PTF) | peak concentration (C max) [2] | P app of GA across Caco-2 cell monolayer (Caco-2 cell monolayer) | P app of marker across the monolayers (Caco-2 cell monolayers; sodium fluorescein 0.6 mg/mL, monolayer integrity check) |
| --- | --- | --- | --- | --- | --- | --- | --- | --- | --- | --- | --- | --- | --- | --- | --- |
| O=C(O)c1cc(O)c(O)c(O)c1 [Gallic acid] | 4.17 | 0.1 ± 0.009 ×10⁻⁶ cm/s | greatly improved | more than 1.5 | significantly increased | no considerable change | significantly increased | – | – | – | 0.024 ± 0.004 ×10⁻⁶ cm/s | ~10^−7 cm/s | lower than 10.47 μg/mL | about 0.20 × 10^−6 cm/s | – |
